Source: patent publication US20250313548A1 (Actio Biosciences, Inc., priority 2023, published 2025)

target: human, KCNT1 (Homo sapiens (Human), UniProt Q5JUK3); experiment: FLIPR Tl/K Flux Assay; type: cell-based; settings: HEK293 cells stably expressing human KCNT1; Tl+ flux stimulated with EC80 of agonist Loxapine
Method in brief: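 HEK293 cells stably expressing human KCNT1 were loaded with FLIPR potassium dye in HEPES/HBSS pH 7.4 with 5 mM probenecid, 1 h at 25 °C, then given test compound for 30 min at 25 °C. Tl+ flux was triggered with chloride-free buffer containing Tl+ and EC80 loxapine and read 160 s. IC50 came from Hill fits of % inhibition.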

Sequence of human, KCNT1 (Q5JUK3 whole entry): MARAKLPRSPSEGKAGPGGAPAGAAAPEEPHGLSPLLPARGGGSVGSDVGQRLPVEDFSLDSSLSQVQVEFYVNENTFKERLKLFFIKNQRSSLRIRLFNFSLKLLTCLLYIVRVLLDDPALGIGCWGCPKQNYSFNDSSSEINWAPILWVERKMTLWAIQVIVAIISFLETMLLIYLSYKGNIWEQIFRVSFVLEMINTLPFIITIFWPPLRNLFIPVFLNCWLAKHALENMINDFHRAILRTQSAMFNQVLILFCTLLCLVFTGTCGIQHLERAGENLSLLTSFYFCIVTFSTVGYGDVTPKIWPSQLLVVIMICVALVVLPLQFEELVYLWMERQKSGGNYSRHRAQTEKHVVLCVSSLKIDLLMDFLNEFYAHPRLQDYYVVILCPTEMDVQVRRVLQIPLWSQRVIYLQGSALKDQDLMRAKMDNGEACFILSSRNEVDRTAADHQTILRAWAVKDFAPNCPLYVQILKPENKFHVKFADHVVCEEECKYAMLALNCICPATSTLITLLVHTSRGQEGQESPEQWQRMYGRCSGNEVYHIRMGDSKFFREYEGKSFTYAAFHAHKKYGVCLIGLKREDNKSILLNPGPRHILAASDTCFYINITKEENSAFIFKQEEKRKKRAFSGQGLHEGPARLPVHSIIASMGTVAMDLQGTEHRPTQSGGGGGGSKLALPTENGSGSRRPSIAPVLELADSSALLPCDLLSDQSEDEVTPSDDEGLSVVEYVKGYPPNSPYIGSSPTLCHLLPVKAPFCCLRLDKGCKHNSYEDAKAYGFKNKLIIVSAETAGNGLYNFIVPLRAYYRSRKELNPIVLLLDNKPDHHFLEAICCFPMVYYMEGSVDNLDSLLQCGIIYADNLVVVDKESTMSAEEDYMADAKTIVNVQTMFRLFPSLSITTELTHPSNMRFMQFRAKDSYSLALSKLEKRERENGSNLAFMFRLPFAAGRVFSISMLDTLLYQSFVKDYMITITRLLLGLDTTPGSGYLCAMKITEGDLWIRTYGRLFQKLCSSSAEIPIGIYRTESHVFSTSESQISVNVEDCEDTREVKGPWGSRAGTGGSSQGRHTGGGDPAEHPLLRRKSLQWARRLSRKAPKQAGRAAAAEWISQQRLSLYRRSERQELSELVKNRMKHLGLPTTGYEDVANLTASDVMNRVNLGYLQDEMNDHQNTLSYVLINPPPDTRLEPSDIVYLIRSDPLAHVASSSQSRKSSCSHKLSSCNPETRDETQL

| Compound | IC50 |
| --- | --- |
| COc1cc(C2=NC3C(NC(=O)c4cccc(C#N)c4)CCCCC3N2)ccn1 (centres unmarked) [Compound I-464] | > 1000 nM |
| COc1cc(-c2cc3n(n2)CCC[C@@H]3NC(=O)c2cccc(C(F)(F)F)n2)ccn1 [Compound I-356a] | 250 to 500 nM |
| O=C(N[C@H]1CCCc2oc(-c3ccnc(C4CC4)c3)nc21)c1cccc(C(F)(F)F)c1 [Compound I-238a, (S)-N-(2-(2-Cyclopropylpyridin-4-yl)-4,5,6,7-tetrahydrobenzo[d]oxazol-4-yl)-3-(trifluoromethyl)benzamide] | < 250 nM |
| Cc1ccc(C(=O)N[C@@H]2CCc3nn(-c4ccnc(C(F)(F)F)c4)cc32)c(C)c1 [Compound I-93b] | > 1000 nM |
| O=C(N[C@H]1CCCn2nc(-c3ccnc(C(F)(F)F)c3)cc21)c1ccnc(OC(F)(F)F)c1 [Compound I-213a, (S)-2-(Trifluoromethoxy)-N-(2-(2-(trifluoromethyl)pyridin-4-yl)-4,5,6,7-tetrahydropyrazolo[1,5-a]pyridin-4-yl)isonicotinamide] | < 250 nM |
| Cc1nn(C)c(C(=O)N[C@H]2CCCn3nc(-c4ccnc(C(F)(F)F)c4)cc32)c1F [Compound I-417a] | < 250 nM |
| Cc1cc(Cl)cc(C(=O)N[C@@H]2CCc3nn(-c4ccnc(C(F)(F)F)c4)cc32)c1 [Compound I-98b] | > 1000 nM |
| COc1cc(-c2nc3c(o2)[C@@H](NC(=O)c2cc(Cl)cc(Cl)c2)CCC3)c(Cl)cn1 [Compound I-162a, (S)-3,5-Dichloro-N-(2-(5-chloro-2-methoxypyridin-4-yl)-4,5,6,7-tetrahydrobenzo[d]oxazol-7-yl)benzamide] | < 250 nM |
| Cn1nc(C(F)(F)F)cc1C(=O)N[C@H]1CCc2ncc(-c3ccnc(C(F)(F)F)c3)cc21 [Compound I-460a] | > 1000 nM |
| Cc1nc(C(=O)N[C@H]2CCn3nc(-c4ccnc(C(C)(F)F)c4)cc32)n(C)n1 [Compound I-206a, (S)-N-(2-(2-(1,1-Difluoroethyl)pyridin-4-yl)-5,6-dihydro-4H-pyrrolo[1,2-b]pyrazol-4-yl)-1,3-dimethyl-1H-1,2,4-triazole-5-carboxamide] | > 1000 nM |
| Cc1ccc(C(=O)N[C@H]2CCc3nn(-c4ccnc(C(F)(F)F)c4)cc32)c(C)c1 [Compound I-93a] | < 250 nM |
| N#Cc1cc(C(=O)N[C@H]2CCCn3nc(-c4ccnc(C(F)(F)F)c4)cc32)ccn1 [Compound I-328a, (S)-2-Cyano-N-(2-(2-(trifluoromethyl)pyridin-4-yl)-4,5,6,7-tetrahydropyrazolo[1,5-a]pyridin-4-yl)isonicotinamide] | < 250 nM |
| Cn1nc(C(F)(F)F)cc1C(=O)N[C@H]1CCn2nc(-c3ccnc(OC(F)F)c3)cc21 [Compound I-233a, (S)-N-(2-(2-(Difluoromethoxy)pyridin-4-yl)-5,6-dihydro-4H-pyrrolo[1,2-b]pyrazol-4-yl)-1-methyl-3-(trifluoromethyl)-1H-pyrazole-5-carboxamide] | < 250 nM |
| Cn1nc(C(F)(F)F)cc1C(=O)N[C@H]1CCn2nc(-c3ccnc(C(F)(F)F)c3)cc21 [Compound I-123a, (S)-1-methyl-3-(trifluoromethyl)-N-(2-(2-(trifluoromethyl)pyridin-4-yl)-5,6-dihydro-4H-pyrrolo[1,2-b]pyrazol-4-yl)-1H-pyrazole-5-carboxamide] | < 250 nM |
| O=C(N[C@H]1CCCc2oc(-c3cc(C(F)(F)F)ncc3F)nc21)c1cccc(C(F)(F)F)c1 [Compound I-554a, (S)—N-(2-(5-Fluoro-2-(trifluoromethyl)pyridin-4-yl)-4,5,6,7-tetrahydrobenzo[d]oxazol-4-yl)-3-(trifluoromethyl)benzamide] | < 250 nM |
| Cn1nc(C(F)(F)F)nc1C(=O)N[C@H]1CCCn2nc(-c3ccnc(C(F)(F)F)c3)cc21 [Compound I-326a, (S)-1-Methyl-3-(trifluoromethyl)-N-(2-(2-(trifluoromethyl)pyridin-4-yl)-4,5,6,7-tetrahydropyrazolo[1,5-a]pyridin-4-yl)-1H-1,2,4-triazole-5-carboxamide] | < 250 nM |
| O=C(NC1CCCc2nn(-c3ccnc(C(F)(F)F)c3)cc21)c1ccc(C(F)(F)F)cc1 (racemic) [Compound I-16, (rac)-4-(Trifluoromethyl)-N-(2-(2-(trifluoromethyl)pyridin-4-yl)-4,5,6,7-tetrahydro-2H-indazol-4-yl)benzamide] | < 250 nM |
| COc1cc(-c2cc3n(n2)CCC[C@@H]3NC(=O)c2cncc(C(F)(F)F)c2)ccn1 [Compound I-357a] | < 250 nM |
| O=C(N[C@H]1CCCc2nc(-c3ccnc(C(F)(F)F)c3)oc21)c1cncc(C(F)(F)F)n1 [Compound I-184a, (S)-6-(Trifluoromethyl)-N-(2-(2-(trifluoromethyl)pyridin-4-yl)-4,5,6,7-tetrahydrobenzo[d]oxazol-7-yl)pyrazine-2-carboxamide] | < 250 nM |
| COc1cc(-c2nc3c(o2)[C@@H](NC(=O)c2cncc(C(F)(F)F)n2)CCC3)c(F)cn1 [Compound I-173a] | 250 to 500 nM |
| (S)-6-(Trifluoromethyl)-N-(2-(2-(trifluoromethyl)pyridin-4-yl)-5,6-dihydro-4H-pyrrolo[1,2-b]pyrazol-4-yl)pyrazine-2-carboxamide [Compound I-572a] | < 250 nM |

| Compound | IC50 |
| --- | --- |
| Cn1nc(C(F)(F)F)cc1C(=O)N[C@@H]1CCCc2cn(-c3ccnc(C(F)(F)F)c3)nc21 [Compound I-87b] | > 1000 nM |
| CCOc1cc(-n2cc3c(n2)CC[C@@H]3NC(=O)c2cc(F)cc(F)c2)ccn1 [Compound I-337a, (S)-N-(2-(2-Ethoxypyridin-4-yl)-2,4,5,6-tetrahydrocyclopenta[c]pyrazol-4-yl)-3,5-difluorobenzamide] | < 250 nM |
| CCOc1cc(C(=O)NC2CCCc3nn(-c4ccnc(C(F)(F)F)c4)cc32)n(C)n1 (racemic) [Compound I-22, (rac)-3-Ethoxy-1-methyl-N-(2-(2-(trifluoromethyl)pyridin-4-yl)-4,5,6,7-tetrahydro-2H-indazol-4-yl)-1H-pyrazole-5-carboxamide] | 250 to 500 nM |
| Cn1nc(C(F)(F)F)cc1C(=O)NC1Cc2cc(-c3ccnc(C(F)(F)F)c3)nn2C1 (centres unmarked) [Compound I-469] | < 250 nM |
| N#Cc1cc(OC(F)(F)F)cc(C(=O)N[C@H]2CCCn3nc(-c4ccnc(C(F)(F)F)c4)cc32)c1 [Compound I-404a] | < 250 nM |
| Cn1nc(C(F)(F)F)cc1C(=O)N[C@H]1CCn2nc(-c3ccnc(C4CC4)c3)cc21 [Compound I-68a] | < 250 nM |
| COc1cc(-n2cc3c(n2)CCCC[C@H]3NC(=O)c2cccc(C)c2)ccn1 [Compound I-376b] | > 1000 nM |
| Cn1nc(CC(F)(F)F)cc1C(=O)N[C@H]1CCCn2nc(-c3ccnc(C(F)(F)F)c3)cc21 [Compound I-389a] | < 250 nM |
| N#Cc1ccc(C(=O)N[C@H]2CCCn3nc(-c4ccnc(C(F)(F)F)c4)cc32)cc1 [Compound I-349a] | < 250 nM |
| O=C(N[C@H]1CCn2nc(-c3ccnc(C(F)(F)F)c3)cc21)C12CC(Cl)(C1)C2 [Compound I-490a, (S)-3-Chloro-N-(2-(2-(trifluoromethyl)pyridin-4-yl)-5,6-dihydro-4H-pyrrolo[1,2-b]pyrazol-4-yl)bicyclo[1.1.1]pentane-1-carboxamide] | < 250 nM |
| CC(C)c1cc(-n2cc3c(n2)CC[C@@H]3NC(=O)c2cc(C(F)(F)F)nn2C)ccn1 [Compound I-70a] | < 250 nM |
| Cn1nc(C(F)(F)F)cc1C(=O)NC1CCc2nn(-c3ccnc(C(F)(F)F)c3)cc2C1 (racemic) [Compound I-63, (rac)-1-Methyl-3-(trifluoromethyl)-N-(2-(2-(trifluoromethyl)pyridin-4-yl)-4,5,6,7-tetrahydro-2H-indazol-5-yl)-1H-pyrazole-5-carboxamide] | < 250 nM |
| O=C(N[C@H]1CCCc2nc(-c3ccnc(C(F)(F)F)c3)oc21)c1cc(Cl)cc(Cl)c1 [Compound I-185a, (S)-3,5-Dichloro-N-(2-(2-(trifluoromethyl)pyridin-4-yl)-4,5,6,7-tetrahydrobenzo[d]oxazol-7-yl)benzamide] | < 250 nM |
| Cn1nc(C(F)(F)F)cc1C(=O)NC1CCCc2nn(-c3ccn4nccc4c3)cc21 (racemic) [Compound I-38, (rac)-1-Methyl-N-(2-(pyrazolo[1,5-a]pyridin-5-yl)-4,5,6,7-tetrahydro-2H-indazol-4-yl)-3-(trifluoromethyl)-1H-pyrazole-5-carboxamide] | > 1000 nM |
| Cn1nc(C(F)(F)F)cc1C(=O)N[C@H]1CCCCn2nc(-c3ccnc(C(F)(F)F)c3)nc21 (single isomer, unassigned) [I-272*] | < 250 nM |
| O=C(N[C@H]1CCn2nc(-c3cc(C(F)(F)F)ncc3F)cc21)C12CC(C(F)F)(C1)C2 [Compound I-527a, (S)-3-(Difluoromethyl)-N-(2-(5-fluoro-2-(trifluoromethyl)pyridin-4-yl)-5,6-dihydro-4H-pyrrolo[1,2-b]pyrazol-4-yl)bicyclo[1.1.1]pentane-1-carboxamide] | < 250 nM |
| CC(F)(F)C12CC(C(=O)N[C@H]3CCn4nc(-c5cc(C(F)(F)F)ncc5F)cc43)(C1)C2 [Compound I-526a, (S)-3-(1,1-Difluoroethyl)-N-(2-(5-fluoro-2-(trifluoromethyl)pyridin-4-yl)-5,6-dihydro-4H-pyrrolo[1,2-b]pyrazol-4-yl)bicyclo[1.1.1]pentane-1-carboxamide] | < 250 nM |
| Cn1nc(C(F)(F)F)cc1C(=O)N[C@H]1CCn2nc(-c3ccnc(C(C)(F)F)c3)cc21 [Compound I-537a, (S)-N-(2-(2-(1,1-Difluoroethyl)pyridin-4-yl)-5,6-dihydro-4H-pyrrolo[1,2-b]pyrazol-4-yl)-1-methyl-3-(trifluoromethyl)-1H-pyrazole-5-carboxamide] | < 250 nM |
| O=C(N[C@H]1CCCc2nnc(-c3ccnc(C(F)(F)F)c3)cc21)c1cc(F)cc(F)c1 [Compound I-453a] | > 1000 nM |
| COc1cc(F)cc(C(=O)N[C@H]2CCn3nc(-c4ccnc(C(F)(F)F)c4)cc32)c1 [Compound I-567a, (S)-3-Fluoro-5-methoxy-N-(2-(2-(trifluoromethyl)pyridin-4-yl)-5,6-dihydro-4H-pyrrolo[1,2-b]pyrazol-4-yl)benzamide] | < 250 nM |
